Common to all, as to assay type: in vivo
Series [1] has as its system Stellaria media (STEME). Briefly: Herbicidal pre-emergence action, section A (Table A9). To be noted: application rate 320 g/ha. A digest of the protocol:
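Percent herbicidal effect, visually graded about 3 weeks post-treatment against untreated pots, reflects pre-emergence application of WP or EC formulations to the soil surface over seeds sown in sandy loam, using 0.5% additive and 600 l of water per hectare.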

Series [2] has as its system Abutilon theophrasti (ABUTH). Briefly: Herbicidal post-emergence action, section B (Table B1). To be noted: application rate 1280 g/ha, rated visually after about 3 weeks. The gist of the method:
(§1)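 Potted weeds in sandy loam are treated post-emergence at the one-leaf stage, 2 to 3 weeks after sowing. The spray is an aqueous WP or EC preparation with 0.5% additive at 600 liters per hectare. Percent activity is assessed by eye after about 3 weeks versus untreated controls.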

A further series has as its system Setaria viridis (SETVI). The series is described as follows: Herbicidal post-emergence action, section B (Table B8). As to conditions: application rate 1280 g/ha, visual rating about 3 weeks after treatment vs untreated controls. The gist of the method: as §1
The subject of series [3] is Stellaria media (STEME). Briefly: Herbicidal post-emergence action, section B (Table B9). As to conditions: visual rating about 3 weeks after treatment vs untreated controls. A digest of the protocol:
as §1

The subject of series [4] is Amaranthus retroflexus (AMARE). Briefly: Herbicidal post-emergence action, section B (Table B11). To be noted: application rate 320 g/ha, visual rating about 3 weeks after treatment vs untreated controls. The gist of the method: as §1
Series [5] concerns Alopecurus myosuroides (ALOMY). The series is described as follows: Herbicidal pre-emergence action, section C (Table C2). As to conditions: visual grading after ca. 3 weeks vs untreated controls. A digest of the protocol: (§2)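 Pre-emergence, sandy loam. WP/EC formulations applied to covering soil surface, aqueous, + 0.5% additive, 600 l water/ha. Greenhouse, optimum growth. Visual % damage vs untreated, ca. 3 wk.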

Series [6] has as its system Matricaria inodora (MATIN). The series is described as follows: Herbicidal pre-emergence action, section C (Table C6). As to conditions: application rate 320 g/ha, visual grading after ca. 3 weeks; for pest or weed control at 320 g/ha: Tripleurospermum inodorum, pre-emergence, 504 h, read-out: pre-emergence activity against MATIN in %. The text has this: Seeds of mono- and dicotyledonous weed plants and crop plants were sown, in plastic or organic planting pots, in sandy loam and covered with soil. The compounds according to the invention, formulated in the form of wettable powders (WP) or as emulsifiable concentrates (EC), were applied to the surface of the covering soil as aqueous suspension or emulsion, with the addition of 0.5% of an additive, at an application rate of 600 l of water/ha (converted). Following treatment, the pots were placed in a greenhouse and kept under optimum growth conditions for the test plants. The visual grading of the damage to the test plants was carried out after ca. 3 weeks in comparison to untreated controls (herbicidal effect in percent (%): 100% effect=plants have died off, 0% effect=as control plants).

In another series the test system is Veronica persica (VERPE). The series is described as follows: Herbicidal pre-emergence action, section C (Table C10). As to conditions: application rate 320 g/ha, visual grading after ca. 3 weeks; for pest or weed control at 320 g/ha: Veronica persica, pre-emergence, 504 h, read-out: pre-emergence activity against VERPE in %. A digest of the protocol:
as §2

Series [7] deals with Digitaria sanguinalis (DIGSA). Briefly: Herbicidal pre-emergence action, section C (Table C12). As to conditions: visual grading after ca. 3 weeks; for pest or weed control at 80 g/ha: Digitaria sanguinalis, pre-emergence, 504 h, application rate 80 g/ha, read-out: pre-emergence activity against DIGSA in %. A digest of the protocol:
as §2

The next series deals with Glycine max (GLXMA). The series is described as follows: Pre-emergence effects on crop plants, section D (Table D4). To be noted: visual grading after ca. 3 weeks. The gist of the method: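 Formulated compound (wettable powder or emulsifiable concentrate) was applied pre-emergence to the soil surface at 320 g/ha or lower. Greenhouse-grown plants were rated visually for percent damage after ca. 3 weeks.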

In series [8] the test system is Echinochloa crus-galli (ECHCG). The series is described as follows: Herbicidal post-emergence action, section E (Table E5). As to conditions: application rate 320 g/ha, visual assessment ca. 3 weeks after spraying; for pest or weed control at 320 g/ha: Echinochloa crus-galli, 504 h, read-out: post-emergence activity against ECHCG in %. From the text:
Seeds of mono- and dicotyledonous weed plants and crop plants were sown, in plastic or organic planting pots, in sandy loam, covered with soil and grown in a greenhouse under controlled growth conditions. 2 to 3 weeks after sowing, the test plants were sprayed in the single-leaf stage. The compounds according to the invention, formulated in form of wettable powders (WP) or as emulsifiable concentrates (EC), were sprayed onto the green plant parts as aqueous suspension or emulsion, with the addition of 0.5% of an additive, at an application rate of 600 l of water/ha (converted). The test plants were placed in the greenhouse for ca. 3 weeks under optimum growth conditions, and then the effect of the preparations was assessed visually in comparison with untreated controls (herbicidal effect in percent (%): 100% effect=plants have died off, 0% effect=as control plants).

As to `Cc1cc2c(nc1-c1cccc(F)c1F)NCS2` [Example I-029, 5-(2,3-difluorophenyl)-6-methyl-2,3-dihydro[1,3]thiazolo[4,5-b]pyridine], the pest or weed control at 320 g/ha stood at 90% in the series on Stellaria media (STEME) [1] (Stellaria media, 504 h, read-out: pre-emergence activity against STEME in %); 90% in the series on Stellaria media (STEME) [3] (Stellaria media, post-emergence, 504 h, application rate 320 g/ha, read-out: post-emergence activity against STEME in %); 90% in [4] (Amaranthus retroflexus, post-emergence, 504 h, read-out: post-emergence activity against AMARE in %); 80% in series [6]; 80% in the series on Veronica persica (VERPE); 80% in series [8]. Besides, the pest or weed control at 1280 g/ha in series [2] (Abutilon theophrasti, 504 h, read-out: post-emergence activity against ABUTH in %) stood at 90%; in the series with Setaria viridis (SETVI) (Setaria viridis, post-emergence, 504 h, read-out: post-emergence activity against SETVI in %), 90%. Moreover, the pest or weed control at 80 g/ha came out at 100% in series [5] (Alopecurus myosuroides, pre-emergence, 504 h, application rate 80 g/ha, read-out: pre-emergence activity against ALOMY in %) and 90% in [7]. Also, in the series with Glycine max (GLXMA) (application rate 80 g/ha), the “pre-emergence activity against GLXMA in % (crop plant damage)” value turned out to be 10%.
For `Cc1cc2c(nc1-c1ccccc1Cl)NCS2` [Example I-049, 5-(2-chlorophenyl)-6-methyl-2,3-dihydro[1,3]thiazolo[4,5-b]pyridine], the pest or weed control at 320 g/ha in [5] (Alopecurus myosuroides, pre-emergence, 504 h, application rate 320 g/ha, read-out: pre-emergence activity against ALOMY in %) was 100%; in [6], 80%; in the series on Veronica persica (VERPE), 80%; in series [8], 80%. Moreover, the pest or weed control at 80 g/ha in series [7] is 90%. For the same compound, the “pre-emergence activity against GLXMA in % (crop plant damage)” value in the series with Glycine max (GLXMA) (application rate 320 g/ha) amounted to 0%.
`Cc1cc2c(nc1-c1ccccc1F)N(S(=O)(=O)Cc1ccc(F)cc1)CS2` [Example I-122]: the “pre-emergence activity against STEME in %” value with Stellaria media (STEME) [1] came out at 90%. In addition, the “post-emergence activity against ABUTH in %” value in series [2] worked out at 90%. For the same compound, the “post-emergence activity against SETVI in %” value with Setaria viridis (SETVI) is recorded as 90%. The “post-emergence activity against STEME in %” value in the series with Stellaria media (STEME) [3] (application rate 1280 g/ha) came out at 90%. Further, the “post-emergence activity against AMARE in %” value in series [4] is 90%. The “pre-emergence activity against ALOMY in %” value in [5] (application rate 320 g/ha) was 100%. In [6], the “pre-emergence activity against MATIN in %” value came out at 80%. Also, in the series on Veronica persica (VERPE), the “pre-emergence activity against VERPE in %” value is given as 80%. For the same compound, the “pre-emergence activity against DIGSA in %” value in series [7] (application rate 320 g/ha) is given as 100%. For the same compound, the “pre-emergence activity against GLXMA in % (crop plant damage)” value in the series with Glycine max (GLXMA) (application rate 80 g/ha) was 10%. In addition, in series [8], the “post-emergence activity against ECHCG in %” value was 90%.

The record behind these values is patent US20240381872A1, “SUBSTITUTED 2,3-DIHYDRO[1,3]THIAZOLO[4,5-B]PYRIDINES, SALTS THEREOF AND THEIR USE AS HERBICIDALLY ACTIVE SUBSTANCES” (BAYER AKTIENGESELLSCHAFT, priority 2021, published 2024).
